# In PubChem BioAssay AID1259411 (Chemical Carcinogenesis Research Information System (CCRIS), 2018):
# Activity calls are given as the source filed them. The rule behind the calls is not given here.
# Test system: rodent carcinogenicity bioassays, tumor incidence
# Assay: CCRIS carcinogenicity studies
# Procedure, shortened: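 NCI-built, expert-reviewed records of carcinogenicity and related test outcomes (mutagenicity, tumor promotion/inhibition) compiled from published and report sources, historical span 1985-2011, not updated.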
structure (smiles),measurement,setting,value
CN(C)N=O,carcinogen call,"Species: DUCK, Route: ORAL, Tumor Site: Type of Lesion: LIVER",active; positive
same,carcinogen call,"Species: FISH, Route: ORAL, Tumor Site: Type of Lesion: LIVER",active; positive
same,carcinogen call,"Species: GUINEA PIG, Route: ORAL, Tumor Site: Type of Lesion: LIVER",active; positive
same,carcinogen call,"Species: HAMSTER, Route: ORAL, Tumor Site: Type of Lesion: LIVER",active; positive
same,carcinogen call,"Species: HAMSTER, Route: SUBCUTANEOUS, Tumor Site: Type of Lesion: LIVER, KIDNEY, NASAL CAVITY, Tumor Site: Type of Lesion: LIVER, KIDNEY, NASAL CAVITY",active; positive
same,carcinogen call,"Species: HAMSTER, Strain/Sex: SYRIAN/MALE, Route: INTRATRACHEAL, Dose: 0, 0.05, 0.1 MG IN PHOSPHATE BUFFER 1/WK FOR 15 WK (TOTAL DOSE: 0; 0.75; 0.5 MG) (STUDY DURATION: LIFESPAN), Dose: 0, 0.05, 0.1 MG IN PHOSPHATE BUFFER 1/WK FOR 15 WK (TOTAL DOSE: 0; 0.75; 0.5 MG) (STUDY DURATION: LIFESPAN), Tumor Site: Type of Lesion: LIVER: HEMANGIOSARCOMA, TUMOR",active; positive
same,carcinogen call,"Species: HAMSTER, Strain/Sex: SYRIAN/MALE, Route: INTRATRACHEAL, Dose: 0, 0.5 MG IN PHOSPHATE BUFFER ONCE (STUDY DURATION: LIFESPAN)",inactive; negative
same,carcinogen call,"Species: MOUSE, Route: INHALATION, Tumor Site: Type of Lesion: LIVER, LUNG, KIDNEY, Tumor Site: Type of Lesion: LIVER, LUNG, KIDNEY",active; positive
same,carcinogen call,"Species: MOUSE, Route: INTRAPERITONEAL, Tumor Site: Type of Lesion: LIVER, LUNG, KIDNEY, Tumor Site: Type of Lesion: LIVER, LUNG, KIDNEY",active; positive
same,carcinogen call,"Species: MOUSE, Route: ORAL, Tumor Site: Type of Lesion: LIVER, LUNG, KIDNEY, Tumor Site: Type of Lesion: LIVER, LUNG, KIDNEY",active; positive
same,carcinogen call,"Species: MOUSE, Route: SUBCUTANEOUS, Tumor Site: Type of Lesion: LIVER, LUNG",active; positive
same,carcinogen call,"Species: MOUSE, Strain/Sex: C3H/FEMALE, Route: TRANSPLACENTAL, Dose: 0, 0.1 MMOL IN 0.9% STERILE SALINE (7.4 MG/KG) ON DAY 16 OF GESTATION (STUDY DURATION: LIFETIME), Tumor Site: Type of Lesion: LIVER: CARCINOMA",active; positive
same,carcinogen call,"Species: MOUSE, Strain/Sex: C3H/FEMALE, Route: TRANSPLACENTAL, Dose: 0, 0.1 MMOL IN 0.9% STERILE SALINE (7.4 MG/KG) ON DAY 19 OF GESTATION (STUDY DURATION: LIFETIME), Tumor Site: Type of Lesion: LIVER: CARCINOMA",active; positive
same,carcinogen call,"Species: MOUSE, Strain/Sex: C3H/MALE, Route: TRANSPLACENTAL, Dose: 0, 0.1 MMOL IN 0.9% STERILE SALINE (7.4 MG/KG) ON DAY 16 OF GESTATION (STUDY DURATION: LIFETIME)",inactive; negative
same,carcinogen call,"Species: MOUSE, Strain/Sex: C3H/MALE, Route: TRANSPLACENTAL, Dose: 0, 0.1 MMOL IN 0.9% STERILE SALINE (7.4 MG/KG) ON DAY 19 OF GESTATION (STUDY DURATION: LIFETIME), Tumor Site: Type of Lesion: LIVER: CARCINOMA",active; positive
same,carcinogen call,"Species: MOUSE, Strain/Sex: STRAIN-A/FEMALE, Route: INTRAPERITONEAL, Dose: 0, 5, 20 UMOL TOTAL DOSE ADMINISTERED IN SUBDOSES 3/WK FOR 7 WK (STUDY DURATION: 37 WK), Dose: 0, 5, 20 UMOL TOTAL DOSE ADMINISTERED IN SUBDOSES 3/WK FOR 7 WK (STUDY DURATION: 37 WK), Tumor Site: Type of Lesion: LUNG: TUMOR",active; positive
same,carcinogen call,"Species: RABBIT, Route: ORAL, Tumor Site: Type of Lesion: LIVER",active; positive
same,carcinogen call,"Species: RAT, Route: INHALATION, Tumor Site: Type of Lesion: NASAL CAVITY",active; positive
same,carcinogen call,"Species: RAT, Route: ORAL, Tumor Site: Type of Lesion: LIVER, KIDNEY",active; positive
same,carcinogen call,"Species: RAT, Route: SUBCUTANEOUS, INTRAPERITONEAL, Tumor Site: Type of Lesion: KIDNEY",active; positive
same,carcinogen call,"Species: RAT, Strain/Sex: F344/FEMALE, Route: INTRAVESICULAR, Dose: 0, 2 MG IN 0.2 ML ETHANOL: DEIONIZED WATER (1:3) 2/WK FOR 30 WK (TOTAL DOSE: 1.6 MMOL) (STUDY DURATION: LIFESPAN), Tumor Site: Type of Lesion: KIDNEY: MESENCHYMAL NEOPLASM, LUNG: TUMOR",active; positive
same,carcinogen call,"Species: RAT, Strain/Sex: SPRAGUE-DAWLEY/FEMALE, Route: INHALATION, Dose: 0, 0.04, 0.2, 1 PPM 4-5 HR/D 4 D/WK FOR 207 D (ESTIMATED DAILY UPTAKE OF 0; 10; 40; 180 UG/KG) (STUDY DURATION: 207 D), Dose: 0, 0.04, 0.2, 1 PPM 4-5 HR/D 4 D/WK FOR 207 D (ESTIMATED DAILY UPTAKE OF 0; 10; 40; 180 UG/KG) (STUDY DURATION: 207 D), Tumor Site: Type of Lesion: NASAL CAVITY: TUMOR",active; positive
same,carcinogen call,"Species: RAT, Strain/Sex: WISTAR/FEMALE, Route: INTRAPERITONEAL, Dose: 0, 0.04% IN 0.1-0.2 ML PHYSIOLOGICAL SALINE 1/D FOR D 1-5 OF LIFE (TOTAL DOSE 0.2 MG) (STUDY DURATION: LIFESPAN OR 1 YR), Tumor Site: Type of Lesion: LIVER: HEPATOCELLULAR CARCINOMA, HEPATOMA, CHOLANGIOMA, ANGIOMA, KIDNEY: MESENCHYMAL TUMOR, EPITHELIAL TUMOR",active; positive
same,carcinogen call,"Species: RAT, Strain/Sex: WISTAR/FEMALE, Route: INTRAPERITONEAL, Dose: 0, 0.04% IN 0.1-0.2 ML PHYSIOLOGICAL SALINE 1/D FOR D 1-10 OF LIFE (TOTAL DOSE 0.4 MG) (STUDY DURATION: LIFESPAN OR 1 YR, Tumor Site: Type of Lesion: LIVER: HEPATOCELLULAR CARCINOMA, HEPATOMA, CHOLANGIOMA, ANGIOMA, KIDNEY: MESENCHYMAL TUMOR, EPITHELIAL TUMOR",active; positive
same,carcinogen call,"Species: RAT, Strain/Sex: WISTAR/FEMALE, Route: INTRAPERITONEAL, Dose: 0, 0.04% IN 0.1-0.2 ML PHYSIOLOGICAL SALINE 1/D FOR D 1-20 OF LIFE (TOTAL DOSE 0.5 MG) (STUDY DURATION: LIFESPAN OR 1 YR, Tumor Site: Type of Lesion: LIVER: HEPATOCELLULAR CARCINOMA, HEPATOMA, ANGIOMA, KIDNEY: MESENCHYMAL TUMOR",active; positive
same,carcinogen call,"Species: RAT, Strain/Sex: WISTAR/FEMALE, Route: ORAL, Dose: 0, 0.033, 0.066, 0.132, 0.264, 0.528, 1.056, 1.584, 2.112, 2.640, 3.168, 4.224, 5.280, 6.336, 8.448, 16.896 PPM IN DRINK, Dose: 0, 0.033, 0.066, 0.132, 0.264, 0.528, 1.056, 1.584, 2.112, 2.640, 3.168, 4.224, 5.280, 6.336, 8.448, 16.896 PPM IN DRINK, Tumor Site: Type of Lesion: LIVER: HEPATOCELLULAR CARCINOMA, HEMANGIOMA, BILE DUCT: TUMOR",active; positive
same,carcinogen call,"Species: RAT, Strain/Sex: WISTAR/MALE, Route: INTRAPERITONEAL, Dose: 0, 0.04% IN 0.1-0.2 ML PHYSIOLOGICAL SALINE 1/D FOR D 1-5 OF LIFE (TOTAL DOSE 0.2 MG) (STUDY DURATION: LIFESPAN OR 1 YR), Tumor Site: Type of Lesion: LIVER: HEPATOCELLULAR CARCINOMA, HEPATOMA, CHOLANGIOMA, KIDNEY: MESENCHYMAL TUMOR, EPITHELIAL TUMOR",active; positive
same,carcinogen call,"Species: RAT, Strain/Sex: WISTAR/MALE, Route: INTRAPERITONEAL, Dose: 0, 0.04% IN 0.1-0.2 ML PHYSIOLOGICAL SALINE 1/D FOR D 1-10 OF LIFE (TOTAL DOSE 0.4 MG) (STUDY DURATION: LIFESPAN OR 1 YR, Tumor Site: Type of Lesion: LIVER: HEPATOCELLULAR CARCINOMA, HEPATOMA, CHOLANGIOMA, ANGIOMA, KIDNEY: MESENCHYMAL TUMOR, EPITHELIAL TUMOR",active; positive
same,carcinogen call,"Species: RAT, Strain/Sex: WISTAR/MALE, Route: INTRAPERITONEAL, Dose: 0, 0.04% IN 0.1-0.2 ML PHYSIOLOGICAL SALINE 1/D FOR D 1-20 OF LIFE (TOTAL DOSE 0.5 MG) (STUDY DURATION: LIFESPAN OR 1 YR, Tumor Site: Type of Lesion: LIVER: HEPATOCELLULAR CARCINOMA, HEPATOMA, ANGIOMA, KIDNEY: MESENCHYMAL TUMOR",active; positive
same,carcinogen call,"Species: RAT, Strain/Sex: WISTAR/MALE, Route: ORAL, Dose: 0, 0.033, 0.066, 0.132, 0.264, 0.528, 1.056, 1.584, 2.112, 2.640, 3.168, 4.224, 5.280, 6.336, 8.448, 16.896 PPM IN DRINK, Dose: 0, 0.033, 0.066, 0.132, 0.264, 0.528, 1.056, 1.584, 2.112, 2.640, 3.168, 4.224, 5.280, 6.336, 8.448, 16.896 PPM IN DRINK, Tumor Site: Type of Lesion: LIVER: HEPATOCELLULAR CARCINOMA, HEMANGIOMA, BILE DUCT: TUMOR",active; positive
c1ccc2c(c1)ccc1cc3ccc4ccccc4c3cc12,carcinogen call,"Species: MOUSE, Strain/Sex: SWISS/FEMALE, Route: DERMAL, Dose: 0, 78 UG IN ACETONE (0.4%) 2/WK FOR 60 WK FOR A TOTAL DOSE OF 0, 9.4 MG (STUDY DURATION: 80 WK), Dose: 0, 78 UG IN ACETONE (0.4%) 2/WK FOR 60 WK FOR A TOTAL DOSE OF 0, 9.4 MG (STUDY DURATION: 80 WK), Tumor Site: Type of Lesion: SKIN: CARCINOMA",active; positive
